In patent US20250011288A1 (BRISTOL-MYERS SQUIBB COMPANY, priority 2021, published 2025):

Target: T1, human RXFP1 (Homo sapiens, UniProt Q9HBX9)
T1 construct: expressed in transfected cells
T1 sequence (Q9HBX9 1-757): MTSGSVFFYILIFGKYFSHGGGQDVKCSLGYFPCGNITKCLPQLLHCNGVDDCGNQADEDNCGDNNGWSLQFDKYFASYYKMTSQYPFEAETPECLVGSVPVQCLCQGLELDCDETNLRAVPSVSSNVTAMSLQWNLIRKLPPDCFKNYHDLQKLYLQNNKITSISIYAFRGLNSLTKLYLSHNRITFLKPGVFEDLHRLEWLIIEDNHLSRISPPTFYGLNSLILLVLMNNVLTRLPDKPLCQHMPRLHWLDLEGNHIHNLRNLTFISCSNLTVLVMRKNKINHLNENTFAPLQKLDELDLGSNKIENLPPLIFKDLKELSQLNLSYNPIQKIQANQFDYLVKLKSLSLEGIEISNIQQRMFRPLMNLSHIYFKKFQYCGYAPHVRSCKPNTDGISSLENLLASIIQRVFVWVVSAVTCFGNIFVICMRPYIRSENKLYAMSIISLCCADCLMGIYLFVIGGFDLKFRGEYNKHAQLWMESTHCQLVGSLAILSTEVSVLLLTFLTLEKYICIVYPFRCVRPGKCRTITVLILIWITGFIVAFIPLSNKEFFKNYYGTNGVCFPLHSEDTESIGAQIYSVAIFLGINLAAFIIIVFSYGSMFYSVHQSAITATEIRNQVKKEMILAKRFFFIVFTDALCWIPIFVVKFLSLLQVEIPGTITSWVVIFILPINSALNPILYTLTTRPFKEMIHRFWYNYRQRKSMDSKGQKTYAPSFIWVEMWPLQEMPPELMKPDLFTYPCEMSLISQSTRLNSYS
Assay: human RXFP1 (hRXFP1) HEK293 cAMP assay (HTRF)
Assay type: cell-based
Conditions: HEK293 cells stably expressing human RXFP1, 30 min at room temperature
Protocol: RXFP1 Cyclic Adenosine Monophosphate (cAMP) Assays. […] Cells were dissociated and suspended in assay buffer. The assay buffer was HBSS buffer (with calcium and magnesium) containing 20 mM HEPES, 0.05% BSA, and 0.5 mM IBMX. Cells (3000 cells per well, except 1500 cell per well for HEK293 cells stably expressing human RXFP1) were added to 384-well Proxiplates (Perkin-Elmer). Cells were immediately treated with test compounds in DMSO (2% final) at final concentrations in the range of 0.010 nM to 50 µM. Cells were incubated for 30 min at room temperature. The level of intracellular cAMP was determined using the HTRF HiRange cAMP assay reagent kit (Cisbio) according to manufacturer's instructions. Solutions of cryptate conjugated anti-cAMP and d2 fluorophore-labelled cAMP were made in a supplied lysis buffer separately. Upon completion of the reaction, the cells were lysed with equal volume of the d2-cAMP solution and anti-cAMP solution. […] The potency and activity of a compound to […] cAMP production was then determined by fitting to a 4-parametric logistic equation from a plot of cAMP level versus compound concentrations.

Row | EC50 [nM] | SMILES
1 | 2.6 | COc1ncc(C2=NO[C@H]3C[C@H](CO)CN23)cc1C(=O)N[C@@H]1C2CCC(/C2=C/C2CC2)[C@@H]1C(=O)N[C@H](C)C1(C)CC1 (stereo partly drawn) [Example 107, N-((1R,2R,3S, 4R,Z)-7-(cyclopropyl-methylene)-3-(((R)-1-(1-methylcyclopropyl)ethyl)carbamoyl)bicyclo[2.2.1]heptan-2-yl)-5-((6S,7aS)-6-(hydroxymethyl)-5,6,7,7a-tetrahydropyrrolo [1,2-d][1,2,4]oxadiazo 1-3-yl)-2-methoxynicotinamide]
2 | 4.8 | COc1ncc(-c2cc([C@H](OC(=O)N3CC4(COC4)C3)C(F)(F)F)ccc2F)cc1C(=O)N[C@@H]1C2CCC(/C2=C/C2CC2)[C@@H]1C(=O)Nc1ccc(F)c(C(F)(F)F)c1 (stereo partly drawn) [Example 184, (1S)-1-[3-(5-{[(2R,3S,7Z)-7-(cyclopropyl-methylidene)-3-{[4-fluoro-3-(trifluoromethyl)phenyl]carbamoyl}bicyclo[2.2.1]heptan-2-yl]carbamoyl}-6-methoxypyridin-3-yl)-4-fluorophenyl]-2,2,2-trifluoroethyl 2-oxa-6-azaspiro[3.3] heptane-6-carboxylate]
3 | 9.4 | O=C(NC1CCC1)O[C@@H](c1ccc(F)c(-c2cnc(OCCO)c(C(=O)N[C@@H]3C4CCC(/C4=C/C(F)(F)F)[C@@H]3C(=O)Nc3ccc(F)c(C(F)(F)F)c3)c2)c1)C(F)(F)F (stereo partly drawn) [Example 43, (IS)-2,2,2-trifluoro-1-14-fluoro-3-(5-{[(2R,3S,7Z)-3-{[4-fluoro-3-(trifluoromethyl)phenyl]carbamoyl}-7-(2,2,2-trifluoroethylidene)bicyclo[2. 2.1]heptan-2-yl]carbamoyl}-6-(2-hydroxyethoxy)pyridin-3-yl)phenyl]ethyl N-cyclobutylcarbamate]
4 | 6.8 | CC1Cc2cc(C3=NOC4CC(O)CC34)cc(C(=O)N[C@@H]3C4CCC(/C4=C/C4CC4)[C@@H]3C(=O)Nc3ccc(F)c(C(F)(F)F)c3)c2O1 (stereo partly drawn) [Example 155, N-[(1R,2R,3S,4R, 7Z)-7-(cyclopropyl-methylidene)-3-{[4-fluoro-3-(trifluoromethyl)phenyl]carbamoyl}bicyclo[2.2.1]heptan-2-yl]-5-{5-hydroxy-3aH,4H,5H,6H, 6H-cyclopenta[d][1,2]oxazol-3-yl}-2-methyl-2,3-dihydro-1-benzofuran-7-carboxamide]
5 | 1600 | COc1nn(-c2cccc(C(=O)O)c2)cc1C(=O)N[C@@H]1C2CCC(/C2=C/C(F)(F)F)[C@@H]1C(=O)Nc1ccc(F)c(C(F)(F)F)c1 (stereo partly drawn) [Example 53, 3-(4-{[(2R,3S,7Z)-3-{[4-fluoro-3-(trifluoromethyl)phenyl]carbamoyl}-7-(2,2,2-trifluoroethylidene)bicyclo[2.2.1]heptan-2-yl]carbamoyl}-3-methoxy-1H-pyrazol-1-yl)benzoic acid]
6 | 3000 | COc1ncc(-c2cc([C@H](O)C(F)(F)F)ccc2F)nc1C(=O)N[C@@H]1C2CCC(/C2=C/C(F)(F)F)[C@@H]1C(=O)Nc1ccc(F)c(C(F)(F)F)c1 (stereo partly drawn) [Example 34, N-[(2R,3S,7Z)-3-{[4-fluoro-3-(trifluoromethyl)phenyl]carbamoyl}-7-(2,2,2-trifluoroethylidene)bicyclo[2.2.1]heptan-2-yl]-6-{2-fluoro-5-[(1S)-2,2,2-trifluoro-1-hydroxyethyl]phenyl}-3-methoxypyrazine-2-carboxamide]
7 | 6 | CC(O)C1CC2ON=C(c3cc4c(c(C(=O)N[C@H]5[C@@H](C(=O)N[C@H](C)C6(C)CC6)[C@H]6CC[C@@H]5/C6=C\C5CC5)c3)OC(C)(C)C4)C2C1 (stereo partly drawn) [Example 176, N-[(1R,2R,3S,4R, 7Z)-7-(cyclopropyl-methylidene)-3-{[(1R)-1-(1-methylcyclopropyl)ethyl]carbamoyl}bicyclo[2.2.1]heptan-2-yl]-5-[5-(1-hydroxyethyl)-3aH,4H,5H,6H, 6aH-cyclopenta[d][1,2]oxazol-3-yl]-2,2-dimethyl-2,3-dihydro-1-benzofuran-7-carboxamide]
8 | 21 | COc1ncc(C2=NOC3CC(C(N)=O)CC23)cc1C(=O)N[C@H]1[C@@H](C(=O)Nc2ccc(F)c(C(F)(F)F)c2)[C@H]2CC[C@@H]1/C2=C\C1CC1 (single isomer, unassigned) [Example 65]
9 | 3.2 | COc1ncc(C2=NO[C@H]3C[C@H](C#N)CN23)cc1C(=O)N[C@@H]1C2CCC(/C2=C/C2CC2)[C@@H]1C(=O)Nc1ccc(F)c(C(F)(F)F)c1 (stereo partly drawn) [Example 134, 5-((6S,7aS)-6-cyano-5,6,7,7a-tetrahydropyrrolo [1,2-d][1,2,4]oxadiazo 1-3-yl)-N-((1R,2R,3S,4R,Z)-7-(cyclopropyl-methylene)-3-((4-fluoro-3-(trifluoromethyl)phenyl)carbamoyl)bicyclo[2.2.1]heptan-2-yl)-2-methoxynicotinamide]
10 | 7.8 | COc1cc(C2=NOC3CC(COC(=O)Nc4ccccc4)CC23)cc(C(=O)N[C@@H]2C3CCC(/C3=C/C3CC3)[C@@H]2C(=O)Nc2ccc(F)c(C(F)(F)F)c2)n1 (stereo partly drawn) [Example 158, [3-(2-{[(2R,3S,7Z)-7-(cyclopropyl-methylidene)-3-{[4-fluoro-3-(trifluoromethyl)phenyl]carbamoyl}bicyclo[2.2.1]heptan-2-yl]carbamoyl}-6-methoxypyridin-4-yl)-3aH,4H,5H,6H, 6aH-cyclopenta[d][1,2]oxazol-5-yl]methyl N-phenylcarbamate]
11 | 300 | COc1ncc(C2=NOC3CC(CO)CC23)cc1C(=O)N[C@@H]1C2CCC(/C2=C/C2CC2)[C@@H]1C(=O)Nc1ccc(F)c(C(F)(F)F)c1 (single isomer, unassigned) [Example 67]
12 | 4.6 | CC1Cc2cc(C3=NOC4CC(CO)CC34)cc(C(=O)N[C@H]3[C@@H](C(=O)N[C@H](C)C4(C)CC4)[C@H]4CC[C@@H]3/C4=C\C3CC3)c2O1 (stereo partly drawn) [Example 153, N-[(1R,2R,3S,4R, 7Z)-7-(cyclopropyl-methylidene)-3-{[(1R)-1-(1-methylcyclopropyl)ethyl]carbamoyl}bicyclo[2.2.1]heptan-2-yl]-5-[5-(hydroxymethyl) 3aH,4H,5H,6H, 6aH-cyclopenta[d][1,2]oxazol-3-yl]-2-methyl-2,3-dihydro-1-benzofuran-7-carboxamide]
13 | 360 | O=C(O)c1ccc(F)c(-c2cc(C(=O)N[C@@H]3C4CCC(/C4=C/C(F)(F)F)[C@@H]3C(=O)Nc3ccc(F)c(C(F)(F)F)c3)c(OCCO)cn2)c1 (stereo partly drawn) [Example 44, 4-Fluoro-3-(4-{[(2R,3S,7Z)-3-{[4-fluoro-3-(trifluoromethyl)phenyl]carbamoyl}-7-(2,2,2-trifluoroethylidene)bicyclo[2.2.1]heptan-2-yl]carbamoyl}-5-(2-hydroxyethoxy)pyridin-2-yl)benzoic acid]
14 | 1300 | COc1ncccc1C(=O)N[C@@H]1C2CCC(C2=C(C)C)[C@@H]1C(=O)Nc1ccc(F)c(C(F)(F)F)c1 (stereo partly drawn) [Example 8, N-[(2R,3S)-3-{[4-fluoro-3-(trifluoromethyl)phenyl]carbamoyl}-7-(propan-2-ylidene)bicyclo [2.2.1]heptan-2-yl]-2-methoxypyridine-3-carboxamide]
15 | 880 | O=C(N[C@@H]1C2CCC(/C2=C/C(F)(F)F)[C@@H]1C(=O)Nc1ccc(F)c(C(F)(F)F)c1)c1nc(Br)cnc1OCCO (some centres unmarked) [Example 48]
16 | 1.9 | COc1ncc(C2=NOC3CC(C(OC(=O)Nc4ccccc4)C(F)(F)F)CC23)cc1C(=O)N[C@H]1[C@@H](C(=O)Nc2ccc(F)c(C(F)(F)F)c2)[C@H]2CC[C@@H]1/C2=C\C1CCCC1 (stereo partly drawn) [Example 174, 1-[3-(5-{[(1R,2R,3S,4R, 7Z)-7-(cyclopentyl-methylidene)-3-{[4-fluoro-3-(trifluoromethyl)phenyl]carbamoyl}bicyclo[2.2.1]heptan-2-yl]carbamoyl}-6-methoxypyridin-3-yl)-3aH,4H,5H,6H, 6aH-cyclopenta[d][1,2]oxazol-5-yl]-2,2,2-trifluoroethyl N-phenylcarbamate]
17 | 770 | O=C(N[C@@H]1C2CCC(/C2=C/C(F)(F)F)[C@@H]1C(=O)Nc1ccc(F)c(C(F)(F)F)c1)c1cc(Br)cnc1OCCO (stereo partly drawn) [Example 41, 5-bromo-N-[(2R,3S,7Z)-3-{[4-fluoro-3-(trifluoromethyl)phenyl]carbamoyl}-7-(2,2,2-trifluoroethylidene)bicyclo[2.2.1]heptan-2-yl]-2-(2-hydroxyethoxy) pyridine-3-carboxamide]
